# Measurements taken from ChEMBL document CHEMBL1155790 (Bioorg Med Chem, 2008).
# How the values were obtained:
# Acetylcholinesterase = biological target: T1, Acetylcholinesterase (Bos taurus, UniProt P23795)
# T1 sequence (P23795 whole entry): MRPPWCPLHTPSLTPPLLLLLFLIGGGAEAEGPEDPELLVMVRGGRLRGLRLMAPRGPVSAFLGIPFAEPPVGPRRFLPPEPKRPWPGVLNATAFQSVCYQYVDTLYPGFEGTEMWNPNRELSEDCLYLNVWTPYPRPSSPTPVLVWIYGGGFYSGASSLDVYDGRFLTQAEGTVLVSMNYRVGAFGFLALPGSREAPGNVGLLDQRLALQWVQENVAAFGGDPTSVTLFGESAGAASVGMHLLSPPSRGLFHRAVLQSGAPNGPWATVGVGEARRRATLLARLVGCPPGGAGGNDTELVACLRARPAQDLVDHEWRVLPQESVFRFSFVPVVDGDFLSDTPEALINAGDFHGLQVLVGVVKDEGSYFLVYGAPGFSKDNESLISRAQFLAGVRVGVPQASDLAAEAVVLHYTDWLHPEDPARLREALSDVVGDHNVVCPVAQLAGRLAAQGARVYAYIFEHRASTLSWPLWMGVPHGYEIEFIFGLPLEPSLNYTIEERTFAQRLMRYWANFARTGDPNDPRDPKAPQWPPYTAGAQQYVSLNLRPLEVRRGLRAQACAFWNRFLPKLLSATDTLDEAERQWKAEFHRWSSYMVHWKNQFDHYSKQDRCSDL
# Description: Inhibition of bovine AChE by Ellman's method
# Cholinesterase = Cholinesterase (Equus caballus, UniProt P81908)
# Description: Inhibition of equine BChE by Ellman's method
# [1] = Selectivity index, IC50 for equine BChE to IC50 for bovine AChE by Ellman's method
# [2] = biological target: Cholinesterase (Equus caballus) (UniProt P81908); experiment: Inhibition of equine BChE at 10 uM by Ellman's method
# [3] = biological target: Cholinesterase (Equus caballus) (UniProt P81908); experiment: Inhibition of equine BChE at 50 uM by Ellman's method
# [4] = biological target: T2, Acetylcholinesterase (Bos taurus) (UniProt P23795); experiment: Inhibition of bovine AChE at 10 uM by Ellman's method
# T2 sequence (whole entry): T1 sequence (P23795 whole entry)
# [5] = biological target: T2, Acetylcholinesterase (Bos taurus); experiment: Inhibition of bovine AChE at 50 uM by Ellman's method
# Sequence of Cholinesterase (Equus caballus) (P81908 whole entry): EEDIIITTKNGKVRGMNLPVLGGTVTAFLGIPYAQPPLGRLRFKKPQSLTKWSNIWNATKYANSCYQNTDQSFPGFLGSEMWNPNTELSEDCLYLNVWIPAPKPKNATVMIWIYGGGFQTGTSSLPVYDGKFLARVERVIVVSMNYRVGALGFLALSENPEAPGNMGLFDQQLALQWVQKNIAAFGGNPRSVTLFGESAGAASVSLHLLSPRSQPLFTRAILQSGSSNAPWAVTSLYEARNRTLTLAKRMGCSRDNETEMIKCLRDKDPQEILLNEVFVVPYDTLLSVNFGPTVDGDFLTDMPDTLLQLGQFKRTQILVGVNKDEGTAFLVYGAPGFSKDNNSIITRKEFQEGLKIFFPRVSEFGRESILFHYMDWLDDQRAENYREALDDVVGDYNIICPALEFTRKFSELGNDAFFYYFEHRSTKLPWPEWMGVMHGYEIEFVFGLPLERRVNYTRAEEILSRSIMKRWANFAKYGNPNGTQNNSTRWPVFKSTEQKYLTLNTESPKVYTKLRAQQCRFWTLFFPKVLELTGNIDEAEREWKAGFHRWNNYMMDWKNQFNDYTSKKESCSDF
# Sequence of Cholinesterase (P81908 whole entry): as above
structure (smiles),measurement,setting,value
CN(C)c1cc(O)cc(OCCCOc2cc(O)cc(N(C)C)c2)c1,IC50,Acetylcholinesterase,1910 nM
C[N+](C)(C)c1cc(O)cc(OCCCOc2cc(O)cc([N+](C)(C)C)c2)c1,IC50,Cholinesterase,718 nM
same,Selectivity Index,[1],1460
same,IC50,Acetylcholinesterase,0.49 nM
C[N+](C)(C)c1cc(O)cc(OCCCCOc2cc(O)cc([N+](C)(C)Cc3ccccc3)c2)c1,IC50,Acetylcholinesterase,6560 nM
same,inhibition,[2],42%
Cc1c(C)c2ccc(OCCCCOc3cc(O)cc(N(C)C)c3)cc2oc1=O,IC50,Acetylcholinesterase,275 nM
same,inhibition,[3],25%
C=CC[N+](C)(C)c1ccc(CCC(=O)CCc2ccc([N+](C)(C)CC=C)cc2)cc1,IC50,Acetylcholinesterase,8 nM
C[N+](C)(C)c1cccc(O)c1,IC50,Acetylcholinesterase,12000 nM
same,inhibition,[2],13%
CN(C)c1cc(O)cc(OCCCOc2cc(O)cc(N(C)Cc3ccccc3)c2)c1,IC50,Acetylcholinesterase,6170 nM
Cc1c(C)c2ccc(OCCCOc3cc(O)cc([N+](C)(C)C)c3)cc2oc1=O,IC50,Cholinesterase,1060 nM
same,Selectivity Index,[1],505
same,IC50,Acetylcholinesterase,2.1 nM
Cc1c(C)c2ccc(OCCCOc3cc(O)cc(N(C)C)c3)cc2oc1=O,IC50,Acetylcholinesterase,871 nM
Cc1c(C)c2ccc(OCCCOc3cc(O)cc(N(C)Cc4ccccc4)c3)cc2oc1=O,inhibition,[4],8%
CN(Cc1ccccc1)c1cc(O)cc(OCCCOc2cc(O)cc(N(C)Cc3ccccc3)c2)c1,inhibition,[5],3%
COc1ccc2c(C)c(C)c(=O)oc2c1,IC50,Acetylcholinesterase,42000 nM
same,inhibition,[2],25%
C[N+](C)(C)c1cccc(OCCCCOc2cccc([N+](C)(C)C)c2)c1,IC50,Cholinesterase,2340 nM
same,Selectivity Index,[1],15
same,IC50,Acetylcholinesterase,158 nM
Cc1c(C)c2ccc(OCCCCOc3cc(O)cc([N+](C)(C)C)c3)cc2oc1=O,IC50,Cholinesterase,708 nM
same,Selectivity Index,[1],708
same,IC50,Acetylcholinesterase,1 nM
CC[N+](CC)(CCNC(=O)C(=O)NCC[N+](CC)(CC)Cc1ccccc1Cl)Cc1ccccc1Cl [AMBENONIUM],IC50,Acetylcholinesterase,0.12 nM
CN(C)c1cc(O)cc(OCCCCOc2cc(O)cc(N(C)Cc3ccccc3)c2)c1,inhibition,[4],40%
CN(Cc1ccccc1)c1cc(O)cc(OCCCCOc2cc(O)cc(N(C)Cc3ccccc3)c2)c1,inhibition,[5],3%
same,inhibition,[4],14%
Cc1c(C)c2ccc(OCCCCOc3cc(O)cc(N(C)Cc4ccccc4)c3)cc2oc1=O,inhibition,[4],15%
CN(C)c1cc(O)cc(OCCCCOc2cc(O)cc(N(C)C)c2)c1,IC50,Acetylcholinesterase,6460 nM
same,inhibition,[3],25%
C[N+](C)(C)c1cc(O)cc(OCCCCOc2cc(O)cc([N+](C)(C)C)c2)c1,IC50,Cholinesterase,715 nM
